# Measurements published in patent US12577206B2 (BRISTOL-MYERS SQUIBB COMPANY, priority 2020, dated 2026).
# Key:
# human FPR2 = molecular target: T1, human FPR2 (Homo sapiens, UniProt P25090); test: FPR2 cyclic adenosine monophosphate (cAMP) assay; type: cell-based; conditions: CHO cells overexpressing human FPR2; forskolin 5 μM; inhibition of cAMP production; HTRF; read-out: hFPR2 cAMP2 EC50
# T1 sequence (P25090 1-351): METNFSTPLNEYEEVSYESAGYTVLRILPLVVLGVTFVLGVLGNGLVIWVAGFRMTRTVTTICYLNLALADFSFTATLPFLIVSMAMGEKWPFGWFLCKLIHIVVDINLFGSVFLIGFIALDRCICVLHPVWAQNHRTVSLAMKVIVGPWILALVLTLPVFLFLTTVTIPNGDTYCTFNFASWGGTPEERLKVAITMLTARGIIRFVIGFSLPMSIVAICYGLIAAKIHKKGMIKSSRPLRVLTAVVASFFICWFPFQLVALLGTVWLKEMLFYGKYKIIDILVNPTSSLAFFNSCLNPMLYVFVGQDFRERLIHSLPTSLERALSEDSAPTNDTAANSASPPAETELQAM
# Method in brief: (§1)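 CHO cells overexpressing human FPR1 (4,000/well) or FPR2 (2,000/well) were incubated 30 min at room temperature with compound (0.020 nM to 100 μM, 1% DMSO), IBMX 200 μM, and forskolin at 10 μM (FPR1) or 5 μM (FPR2), all final. HTRF cAMP read-out; inhibition fitted by 4-parameter logistic equation.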
# human FPR1 = molecular target: T2, human FPR1 (Homo sapiens, UniProt P21462); test: FPR1 cyclic adenosine monophosphate (cAMP) assay; type: cell-based; conditions: CHO cells overexpressing human FPR1; forskolin 10 μM; inhibition of cAMP production; HTRF; read-out: hFPR1 cAMP2 EC50
# T2 sequence (P21462 1-350): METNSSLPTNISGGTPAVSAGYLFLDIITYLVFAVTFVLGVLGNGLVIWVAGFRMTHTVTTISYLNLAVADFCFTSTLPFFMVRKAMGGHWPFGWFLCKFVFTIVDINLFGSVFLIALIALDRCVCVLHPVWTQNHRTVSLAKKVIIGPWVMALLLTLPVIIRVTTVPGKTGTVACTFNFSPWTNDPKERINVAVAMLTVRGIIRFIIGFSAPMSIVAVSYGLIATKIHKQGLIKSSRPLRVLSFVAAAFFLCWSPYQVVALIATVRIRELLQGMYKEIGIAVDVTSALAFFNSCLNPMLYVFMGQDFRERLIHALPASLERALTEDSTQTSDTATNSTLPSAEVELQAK
# Method in brief: as §1
EC50 (human FPR2) [nM],EC50 (human FPR1) [nM],Compound
2,> 10000,"COc1cc(F)c(-c2c(NC(=O)c3ccc(OC(F)F)cc3)c(=O)n(-c3nc(C(C)(C)O)ccc3C#N)n2C)c(F)c1 [Example 291, N-{2-[3-cyano-6-(2-hydroxypropan-2-yl)pyridin-2-yl]-5-(2,6-difluoro-4-methoxyphenyl)-1-methyl-3-oxo-2,3-dihydro-1H-pyrazol-4-yl}-4-(difluoromethoxy)benzamide]"
2,4100,"COc1cc(F)c(-c2c(NC(=O)c3ccc(OC(F)F)cc3)c(=O)n(-c3nc(N4CC[C@@H](CO)C4)ccc3C(F)(F)F)n2C)c(F)c1 [Example 292, N-[5-(2,6-difluoro-4-methoxyphenyl)-2-{6-[(3R)-3-(hydroxymethyl)pyrrolidin-1-yl]-3-(trifluoromethyl)pyridin-2-yl}-1-methyl-3-oxo-2,3-dihydro-1H-pyrazol-4-yl]-4-(difluoromethoxy)benzamide]"
9,1200,"COc1ccc(-c2c(NC(=O)c3ccc(OC(F)F)cc3)c(=O)n(-c3ncccc3C(F)(F)F)n2C)cc1F [Example 293, 4-(difluoromethoxy)-N-[5-(3-fluoro-4-methoxyphenyl)-1-methyl-3-oxo-2-[3-(trifluoromethyl)pyridin-2-yl]-2,3-dihydro-1H-pyrazol-4-yl]benzamide]"
32,1400,"COc1ccc(-c2c(NC(=O)c3ccc(OC(F)F)cc3)c(=O)n(-c3ncccc3Cl)n2C)cc1F [Example 294, N-[2-(3-chloropyridin-2-yl)-5-(3-fluoro-4-methoxyphenyl)-1-methyl-3-oxo-2,3-dihydro-1H-pyrazol-4-yl]-4-(difluoromethoxy)benzamide]"
1,1500,"COc1ccc(-c2c(NC(=O)c3ccc(OC(F)F)cc3)c(=O)n(-c3nc(Cl)ccc3C(F)(F)F)n2C)c(F)c1 [Example 295, N-{2-[6-chloro-3-(trifluoromethyl)pyridin-2-yl]-5-(2-fluoro-4-methoxyphenyl)-1-methyl-3-oxo-2,3-dihydro-1H-pyrazol-4-yl}-4-(difluoromethoxy)benzamide]"
33,> 10000,"COc1cc(O)c(-c2c(NC(=O)c3ccc(OC(F)F)cc3)c(=O)n(-c3nc(Cl)ccc3Cl)n2C)c(F)c1 [Example 296, N-[2-(3,6-dichloropyridin-2-yl)-5-(2-fluoro-6-hydroxy-4-methoxyphenyl)-1-methyl-3-oxo-2,3-dihydro-1H-pyrazol-4-yl]-4-(difluoromethoxy)benzamide]"
2,380,"COc1cc(F)c(-c2c(NC(=O)c3ccc(OC(F)F)cc3)c(=O)n(-c3nc(N4CCCC4=O)ccc3C(F)(F)F)n2C)c(F)c1 [Example 297, N-[5-(2,6-difluoro-4-methoxyphenyl)-1-methyl-3-oxo-2-[6-(2-oxopyrrolidin-1-yl)-3-(tifluoromethyl)pyridin-2-yl]-2,3-dihydro-1H-pyrazol-4-yl]-4-(difluoromethoxy)benzamide]"
14,440,"COc1cc(F)c(-c2c(NC(=O)c3ccc(OC(F)F)cc3)c(=O)n(-c3nc(OCC(C)(C)O)ccc3Cl)n2C)c(F)c1 [Example 298, N-{2-[3-chloro-6-(2-hydroxy-2-methylpropoxy)pyridin-2-yl]-5-(2,6-difluoro-4-methoxyphenyl)-1-methyl-3-oxo-2,3-dihydro-1H-pyrazol-4-yl}-4-(difluoromethoxy)benzamide]"
8,> 5000,"COc1cc(F)c(-c2c(NC(=O)c3ccc(OC(F)F)cc3)c(=O)n(-c3nc(N4CC5(CC(O)C5)C4)ccc3Cl)n2C)c(F)c1 [Example 299, N-[2-(3-chloro-6-{6-hydroxy-2-azaspiro[3.3]heptan-2-yl}pyridin-2-yl)-5-(2,6-difluoro-4-methoxyphenyl)-1-methyl-3-oxo-2,3-dihydro-1H-pyrazol-4-yl]-4-(difluoromethoxy)benzamide]"
7,> 5000,"COc1cc(F)c(-c2c(NC(=O)c3ccc(OC(F)F)cc3)c(=O)n(-c3nc(N4CC(O)C4)ccc3Cl)n2C)c(F)c1 [Example 300, N-{2-[3-chloro-6-(3-hydroxyazetidin-1-yl)pyridin-2-yl]-5-(2,6-difluoro-4-methoxyphenyl)-1-methyl-3-oxo-2,3-dihydro-1H-pyrazol-4-yl}-4-(difluoromethoxy)benzamide]"
6,140,"Cn1c(-c2ccc(C(F)(F)F)cc2)c(NC(=O)c2ccc(OC(F)F)cc2)c(=O)n1-c1ncccc1C(F)(F)F [Example 301, 4-(difluoromethoxy)-N-{1-methyl-3-oxo-5-[4-(trifluoromethyl)phenyl]-2-[3-(trifluoromethyl)pyridin-2-yl]-2,3-dihydro-1H-pyrazol-4-yl}benzamide]"
1,2200,"COc1cc(F)c(-c2c(NC(=O)c3ccc(OC(F)F)cc3)c(=O)n(-c3nc(N4CCCC4C(F)(F)F)ccc3C(F)(F)F)n2C)c(F)c1 (centres unmarked) [Example 302, N-[5-(2,6-difluoro-4-methoxyphenyl)-1-methyl-3-oxo-2-[3-(trifluoromethyl)-6-[2-(trifluoromethyl)pyrrolidin-1-yl]pyridin-2-yl]-2,3-dihydro-1H-pyrazol-4-yl]-4-(difluoromethoxy)benzamide]"
1,> 10000,"COc1cc(F)c(-c2c(NC(=O)c3ccc(OC(F)F)cc3)c(=O)n(-c3nc(N4CCC(C(N)=O)C4)ccc3C(F)(F)F)n2C)c(F)c1 (centres unmarked) [Example 303, 1-{6-[3-(2,6-difluoro-4-methoxyphenyl)-4-[4-(difluoromethoxy)benzamido]-2-methyl-5-oxo-2,5-dihydro-1H-pyrazol-1-yl]-5-(trifluoromethyl)pyridin-2-yl}pyrrolidine-3-carboxamide]"
21,110,"Cn1c(-c2ccc(OC(F)(F)F)cc2)c(NC(=O)c2ccc(OC(F)F)cc2)c(=O)n1-c1ncccc1C(F)(F)F [Example 304, 4-(difluoromethoxy)-N-{1-methyl-3-oxo-5-[4-(trifluoromethoxy)phenyl]-2-[3-(trifluoromethyl)pyridin-2-yl]-2,3-dihydro-1H-pyrazol-4-yl}benzamide]"
2,3900,"COc1cc(F)c(-c2c(NC(=O)c3ccc(OC(F)F)cc3)c(=O)n(-c3nc(N4CCC(C(N)=O)C4)ccc3C(F)(F)F)n2C)c(F)c1 (centres unmarked) [Example 305, 1-{6-[3-(2,6-difluoro-4-methoxyphenyl)-4-[4-(difluoromethoxy)benzamido]-2-methyl-5-oxo-2,5-dihydro-1H-pyrazol-1-yl]-5-(trifluoromethyl)pyridin-2-yl}pyrrolidine-3-carboxamide]"
1,2300,"COc1cc(F)c(-c2c(NC(=O)c3ccc(OC(F)F)cc3)c(=O)n(-c3nc(N4CCN5CCC[C@@H]5C4)ccc3C(F)(F)F)n2C)c(F)c1 [Example 306, N-(2-{6-[(8aR)-octahydropyrrolo[1,2-a]piperazin-2-yl]-3-(trifluoromethyl)pyridin-2-yl}-5-(2,6-difluoro-4-methoxyphenyl)-1-methyl-3-oxo-2,3-dihydro-1H-pyrazol-4-yl)-4-(difluoromethoxy)benzamide]"
5,> 10000,"COc1cc(F)c(-c2c(NC(=O)c3ccc(OC(F)F)cc3)c(=O)n(-c3nc(N4CC(C)(O)C4)ccc3Cl)n2C)c(F)c1 [Example 307, N-{2-[3-chloro-6-(3-hydroxy-3-methylazetidin-1-yl)pyridin-2-yl]-5-(2,6-difluoro-4-methoxyphenyl)-1-methyl-3-oxo-2,3-dihydro-1H-pyrazol-4-yl}-4-(difluoromethoxy)benzamide]"
3,> 10000,"COc1cc(F)c(-c2c(NC(=O)c3ccc(OC(F)F)cc3)c(=O)n(-c3nc(N4CC5(CC(O)C5)C4)ccc3C(F)(F)F)n2C)c(F)c1 [Example 308, N-[5-(2,6-difluoro-4-methoxyphenyl)-2-(6-{6-hydroxy-2-azaspiro[3.3]heptan-2-yl}-3-(trifluoromethyl)pyridin-2-yl)-1-methyl-3-oxo-2,3-dihydro-1H-pyrazol-4-yl]-4-(difluoromethoxy)benzamide]"
10,2200,"CCc1ccc(OCC(C)(C)O)nc1-n1c(=O)c(NC(=O)c2ccc(OC(F)F)cc2)c(-c2c(F)cc(OC)cc2F)n1C [Example 309, N-[5-(2,6-difluoro-4-methoxyphenyl)-2-[3-ethyl-6-(2-hydroxy-2-methylpropoxy)pyridin-2-yl]-1-methyl-3-oxo-2,3-dihydro-1H-pyrazol-4-yl]-4-(difluoromethoxy)benzamide]"
